Consider six substances from PMC11612144, “Deep quantification of substrate turnover defines protease subsite cooperativity” (Molecular Systems Biology, 2024).

No end group written: not given here.

The target of one data set is T1, hDPP4 (Homo sapiens, UniProt P27487).
T1 construct: purchased Abcam ab79138
As to the kind of experiment: In vitro protease assay by mass spectrometry: cleavage of synthetic GLP-1 N-terminal peptides by hDPP4 over time. The format is in vitro ADME. Particulars: hDPP4 1 µg in 100 µl, peptide 1 pmol/µl, 21 °C, LC-MS, Fig. 4A; for product formation upon digestion with hDPP4 (in words): 30-120 min, three technical replicates. The procedure: Synthetic peptides representing either wild-type or mutated GLP-1 were purchased from Thermo Fisher Scientific and their cleavage by DPP4 was measured over time. Briefly, the lyophilized peptides were dissolved in TBS buffer supplemented with 2 mM TCEP to obtain a stock solution with a final concentration of 0.1 nmol/µl. 1ug of DPP4 and each peptide at a final concentration of 1 pmol/µl were used in reactions at a final volume of 100 µl. To distinguish the products, the four peptides were pooled into two groups. One group contained GLP-1 wt (HAE ([…])) & GLP-1 H1D, E3P (DAP ([…])) and the other group GLP-1 H1D (DAE ([…])) & GLP-1 E3P (HAP ([…])). The assay was performed at 21 °C, aliquots (20 µl) were taken out at the indicated times and mixed with 180 µl of 0.1% trifluoroacetic acid, 2 mM TCEP, 2% acetonitrile in water to stop the reaction.
The peptides were analyzed by capillary liquid chromatography tandem mass spectrometry (LC-MS) using an Orbitrap Fusion LUMOS, a VanquishNeo-nLC, and a 75umx15cm EasyC18 column kept at 45 °C and mounted on a easy source (Thermo Fisher Scientific). Peptides were loaded on a 0.3 × 5 mm C18 trap using a back flash method for elution. Peptides were separated with a gradient of 0–0.2 min 2–6%B in A, 0.2–4.2 min 6–21%, 4.2–6.2 min 21–30%, 6.2–6.7 min 30–36%, 6.7–7.2 min 36–45%, 7.2–7.5 min 45%-100%, 7.5-12 min 100%. A: 0.1% FA in H2O; B: 0.1% FA, 80% MeCN in H2O, at room temperature and the flow rate during the gradient was 200 nl/min and for the last 4.4 min 350 nl/min. The data were acquired using 120,000 resolution for the peptide measurements in the Orbitrap and a top T (1.5 s) method with HCD fragmentation for each precursor and fragment measurement in the ion trap following the manufacturer guidelines (Thermo Scientific).

For data set [1], the target named is C. elegans DPF-3 (DPP8/9-orthologue), full-length, recombinant (C. elegans). The data set is described as follows: cryo-EM structure; single particle cryo-EM of full-length DPF-3 alone (apo), ~0.3 mg/ml and 2.5% glycerol, grids blotted at 4 °C; homodimer.
The next data set deals with GLP-1 receptor. Particulars: compared with GLP-1(7-37); ref Mentlein et al, 1993; Muller et al, 2019; cited from earlier work. An excerpt: To achieve clinical utility, GLP ...

T1 sequence (P27487 whole entry): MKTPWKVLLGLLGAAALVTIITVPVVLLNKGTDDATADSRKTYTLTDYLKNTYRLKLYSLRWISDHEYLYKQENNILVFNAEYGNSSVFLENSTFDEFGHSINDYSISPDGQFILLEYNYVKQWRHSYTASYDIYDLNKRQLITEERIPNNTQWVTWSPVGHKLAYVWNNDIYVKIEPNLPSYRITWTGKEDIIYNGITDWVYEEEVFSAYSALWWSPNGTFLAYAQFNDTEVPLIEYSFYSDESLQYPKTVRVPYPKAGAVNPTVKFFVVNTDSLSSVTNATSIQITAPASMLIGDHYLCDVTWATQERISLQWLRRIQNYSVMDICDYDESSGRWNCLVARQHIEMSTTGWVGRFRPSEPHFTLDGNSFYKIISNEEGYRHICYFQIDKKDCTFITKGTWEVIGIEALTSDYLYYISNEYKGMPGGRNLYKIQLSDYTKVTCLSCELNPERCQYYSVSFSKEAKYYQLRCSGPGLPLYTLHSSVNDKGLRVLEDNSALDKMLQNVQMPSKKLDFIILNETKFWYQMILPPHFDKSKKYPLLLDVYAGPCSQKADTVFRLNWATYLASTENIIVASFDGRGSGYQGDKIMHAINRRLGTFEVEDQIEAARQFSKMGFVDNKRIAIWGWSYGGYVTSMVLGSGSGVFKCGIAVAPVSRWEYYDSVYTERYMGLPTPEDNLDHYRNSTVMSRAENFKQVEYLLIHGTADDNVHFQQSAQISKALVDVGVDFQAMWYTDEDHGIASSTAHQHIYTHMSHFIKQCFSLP

With HAPGTFTSDVSR [HAP], the “product formation upon digestion with hDPP4 (in words)” value (from here on “product formation upon digestion”) at hDPP4 is “completely abrogated product formation”.
In the case of DAEGTFTSDVSR [DAE], the “product formation upon digestion” value on hDPP4 is “greatly decreased product levels at all time points and continued product accumulation over 120 min”.
As usually defined, the stoichiometry N is the number of molecules, sites or subunits per partner or assembly. For the substance “C. elegans DPF-3 (DPP8/9-orthologue), full-length, recombinant (enzyme)”, the stoichiometry N in data set [1] came out at 2.
In the case of HAEGTFTSDVSR [HAE, reference compound], the “time within which product formation was essentially complete” value on hDPP4 is given as at most 30 min.
For “GLP-1(9-37): DPP4-processed GLP-1 peptide (EGTFTSDVSSYLEGQAAKEFIAWLVKGRG; Glucagon-like peptide 1; UniProt P01275 100-128, looked up, fragment)”, in the data set with GLP-1 receptor, the “affinity to its receptor (in words)” value is reported as “reduced affinity”.
With DAPGTFTSDVSR [DAP], the “product formation upon digestion” value on hDPP4 was “completely abrogated product formation”.
